Drawing on PubChem BioAssay (NCI), this text covers TGI and GI50 for 10 compounds.

The structures appear in SMILES notation. Several values for one entry are separate records, joined by “and”; a condition that tells them apart may be missing. Identical values can stand only once.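 1) Cells in 96-well plates. 2) Compound, 48 h, 5 concentrations. 3) Linear interpolation between surrounding doses. 4) Unreached endpoint = highest concentration. GI50 marks 50% less growth. TGI is the concentration that stops growth completely.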

Some test systems named below: 786-0 renal; A549 NSCLC; EKVX NSCLC; IGROV1 ovarian; NCI-H23 lung; SF-295 CNS; SN12C renal; SNB-19 CNS; ACHN renal; NCI-H226 lung.
Common to all, as to assay: DTP human tumour cell line panel, 48 h

For orientation: TGI means the concentration giving total growth inhibition. The low end stands for more potent growth arrest, the high end for less potent growth arrest. With `COC(=O)CC(=O)NCC1=CCC(=O)CC1`, the TGI with 786-0 renal, in the test with A549 NSCLC, with EKVX NSCLC, in the test with IGROV1 ovarian, in the test on NCI-H23 lung and with SF-295 CNS was greater than 100 µM throughout. Further, the TGI in the test with SN12C renal and with SNB-19 CNS was greater than 100 µM each time.

The GI50 is the concentration at which growth is held to half of that of the control. `Cn1cc(C2=C(c3ccccc3C(F)(F)F)C(=O)NC2=O)c2ccccc21`: the GI50 with 786-0 renal was 9.16 µM; in the test with A549 NSCLC, 7.89 µM; in the test on ACHN renal, 8.06 µM; with IGROV1 ovarian, 13.2 µM; in the test on NCI-H226 lung it was 7.07 µM; in the test on NCI-H23 lung, 11.9 µM. The GI50 is 4.33 µM in the test with SF-295 CNS, 9.73 µM in the test on SN12C renal and 21 µM with SNB-19 CNS. In addition, the TGI in the test with 786-0 renal was greater than 25 µM; with A549 NSCLC it was greater than 25 µM; with ACHN renal it was greater than 25 µM; in the test with IGROV1 ovarian it was greater than 25 µM; with NCI-H226 lung, greater than 24.2 µM; with NCI-H23 lung, greater than 25 µM. In addition, the TGI with SF-295 CNS was greater than 17.2 µM; in the test with SN12C renal it was greater than 25 µM; with SNB-19 CNS it was greater than 25 µM.

On to `O=c1[nH]c(=O)n(C2CC(O)C(CO)O2)cc1COCC(F)(F)F` (stereo unspecified), for which the TGI in the test on 786-0 renal, with A549 NSCLC, with ACHN renal, with EKVX NSCLC, in the test on IGROV1 ovarian and with NCI-H23 lung was greater than 100 µM throughout. Further, the TGI with SF-295 CNS, with SN12C renal and in the test with SNB-19 CNS was greater than 100 µM throughout.

For `CN(C)CCCCCNc1c2ccccc2nc2cccc([N+](=O)[O-])c12`, the TGI in the test with 786-0 renal stood at 0.00798 µM; in the test with A549 NSCLC, 0.00235 µM; with ACHN renal, 0.00325 µM; in the test on EKVX NSCLC, 0.0128 µM; in the test with IGROV1 ovarian, 0.00655 µM; in the test with NCI-H226 lung, 0.057 µM. Besides, the concentration for total growth inhibition (TGI) was 0.00344 µM and 0.00234 µM with NCI-H23 lung; > 0.0231 µM and 0.0317 µM in the test with SNB-19 CNS. In addition, the GI50 was 0.00571 µM with A549 NSCLC; 0.00374 µM in the test with ACHN renal; 0.00621 µM in the test with IGROV1 ovarian; 0.00162 µM with NCI-H23 lung; 0.0097 µM with SF-295 CNS.

For the compound `CC(=O)NC1=C(N)C(=O)c2ccccc2C1=O`, the TGI in the test with 786-0 renal, in the test with A549 NSCLC, in the test on ACHN renal, in the test with EKVX NSCLC, in the test with IGROV1 ovarian and with NCI-H23 lung was greater than 100 µM throughout. Also, the TGI in the test on SF-295 CNS, in the test with SN12C renal and in the test on SNB-19 CNS was greater than 100 µM throughout.

Regarding `C=Cc1c(C)c2cc3[nH]c(cc4nc(cc5nc(cc1[nH]2)C(C)=C5CCC(=O)N(CC)CC)C(CCC(=O)N(CC)CC)=C4C)c(C)c3C=C`, the TGI in the test on 786-0 renal, in the test with A549 NSCLC, in the test on ACHN renal, in the test with EKVX NSCLC, in the test with IGROV1 ovarian and in the test with NCI-H23 lung was greater than 100 µM in each case. For the same compound, the TGI in the test with SF-295 CNS and with SN12C renal was greater than 100 µM each time.

On to `COc1ccc(-c2nc(N)c(C#N)c3c2CCOc2c-3ccc3ccccc23)cc1`, for which the GI50 in the test with 786-0 renal was 17.2 µM; with A549 NSCLC it was 28 µM; in the test with ACHN renal, 10.1 µM; in the test on NCI-H226 lung, 18 µM; in the test on NCI-H23 lung, 19.4 µM; with SN12C renal it was 21 µM. The GI50 with SNB-19 CNS is 24.2 µM. Besides, the TGI in the test on 786-0 renal came out at 48.3 µM; in the test on A549 NSCLC, 76.7 µM; with ACHN renal, 22.6 µM; in the test on NCI-H226 lung, 58.2 µM; with NCI-H23 lung, 61.9 µM; in the test on SN12C renal it was 76.5 µM. In the test on SNB-19 CNS, the TGI turned out to be 91 µM.

For the compound `Cn1cncc1-c1c(F)cncc1NC(=O)c1c(N)nn2cc(F)cnc12`, the GI50 was 0.338 µM with 786-0 renal; 2.27 µM in the test on A549 NSCLC; 0.422 µM with ACHN renal; 5.18 µM in the test on EKVX NSCLC; 2.54 µM in the test on IGROV1 ovarian; 0.093 µM with NCI-H23 lung. Besides, the GI50 is 0.625 µM in the test with SF-295 CNS, 3.98 µM in the test on SN12C renal and 5.2 µM in the test on SNB-19 CNS. Moreover, the TGI with 786-0 renal was greater than 100 µM; in the test on A549 NSCLC it was greater than 100 µM; in the test on ACHN renal, greater than 100 µM; in the test with EKVX NSCLC, greater than 100 µM; in the test on IGROV1 ovarian, 13.8 µM; in the test on NCI-H23 lung, 1.34 µM. The TGI is 6.61 µM in the test on SF-295 CNS, 37.6 µM with SN12C renal and greater than 100 µM in the test on SNB-19 CNS.

Take `CCc1nc2cc(/C=C/C(=O)NO)ccc2c(=O)n1CCc1ccc(OC)cc1`: the GI50 with 786-0 renal was 2.31 µM; in the test with A549 NSCLC, 3.56 µM; in the test on ACHN renal, 1.85 µM; with EKVX NSCLC, 3.91 µM; in the test with NCI-H226 lung, 2.87 µM; in the test on NCI-H23 lung, 2.4 µM. For the same compound, the GI50 was 2.16 µM with SF-295 CNS and 3.21 µM in the test with SNB-19 CNS. Further, the TGI is 6.28 µM in the test on 786-0 renal; 15.1 µM in the test on A549 NSCLC; 4.36 µM in the test on ACHN renal; 43.9 µM in the test with EKVX NSCLC; 17.3 µM with NCI-H226 lung; 7.89 µM with NCI-H23 lung. The TGI was found to be 5.39 µM in the test on SF-295 CNS and 21.4 µM in the test with SNB-19 CNS.

For the compound `COc1ccc(-c2n[nH]nc2-c2cc(OC)c3c(c2)OCO3)cc1`, the GI50 with 786-0 renal is 0.0423 µM; with A549 NSCLC, 0.0239 µM; with ACHN renal it was 0.0648 µM; with IGROV1 ovarian, 0.0289 µM; in the test with NCI-H226 lung, 0.83 µM; with NCI-H23 lung, 0.0314 µM. The figures for the concentration for 50% growth inhibition (GI50) with SF-295 CNS, in the test on SN12C renal and with SNB-19 CNS were less than 0.01 µM, 0.071 µM and 0.0441 µM, respectively. Further, the TGI was 28.5 µM in the test on 786-0 renal; greater than 100 µM in the test on A549 NSCLC; greater than 100 µM in the test with ACHN renal; greater than 100 µM with IGROV1 ovarian; greater than 100 µM in the test on NCI-H226 lung; 29.6 µM in the test with NCI-H23 lung. For the same compound, the TGI in the test on SF-295 CNS was 0.429 µM; with SN12C renal, 55.6 µM; in the test on SNB-19 CNS, greater than 100 µM.
